Legend:
[1] = Change in body weight of rats under oral astaxanthin; format: in vivo, rat; conditions: for body weight: SHR/Ndmer rats
Description: (§1) Female 5 weeks old, metabolic syndrome model rats (SHR/Ndmer) (a product of Sankyo laboratories Co., Ltd.) were purchased and reared for about a week in a laboratory animals rearing room of a constant temperature (24 ± 1 °C), a constant humidity (54 ± 5 %) and a 12 hour light-dark cycle, and thereafter used for the experiment. Water and feed were provided ad lib to them. In the experiment, each group consists of 6 rats with proviso that 5 Wistar rats as normal group were used. Sample was orally administered to all rats in the afternoon.
(§2) • 1) Control group: olive oil was administered in an amount of 1 ml per 1 kg of body weight of rat. • 2) Astaxanthin 5 mg/Kg administration group: astaxanthin was administered in an amount of 5 mg in admixture with I ml of olive oil per 1 kg of body weight of rat. • 3) Astaxanthin 50 mg/Kg administration group: astaxanthin was administered in an amount of 50 mg in admixture with I ml of olive oil per 1 kg of body weight of rat. • 4) Normal group: olive oil was administered in an amount of 1 ml per 1 kg of body weight of Wister rat

[2] = system: metabolic syndrome model rats (SHR/Ndmer); test: Measurement of blood pressure (tail artery, plethysmography); format: in vivo, rat; conditions: for diastolic blood pressure / systolic blood pressure: SHR/Ndmer rats
Description: Rats were broken in the apparatus since a week ago from the beginning of the experiment. They were bound slightly under a non-anesthetic and cuff with a built-in infrared sensor (THC-1, a product of Softron Co., Ltd. was applied to the tail artery to measure pressure (maximum, minimum and an average blood pressures) by a plethysmography. The measurement of blood pressure was conducted in the afternoon.
as §1, §2

[3] = system: metabolic syndrome model rats (SHR/Ndmer); test: Fasting blood glucose value; format: in vivo, rat; conditions: overnight fasting
Description: Water only was given to rats ad lib from the day before the measurement not so as to give any feed to them. In the afternoon, 0.5 U of insulin was injected to them in an amount of 1 ml per 1 kg of the body weight, and the exsanguinations were conducted at given times to measure the glucose concentration in blood using a Antisence Π (a product of Horive Ltd).
as §1, §2

[4] = system: metabolic syndrome model rats (SHR/Ndmer); test: Blood glucose value after insulin injection (insulin resistance test); format: in vivo, rat; conditions: for blood glucose value after insulin infection: SHR/Ndmer rats, fasted, 120 minutes after 0.5U insulin
Description: Water only was given to rats ad lib from the day before the measurement not so as to give any feed to them. In the afternoon, 0.5 U of insulin was injected to them in an amount of 1 ml per 1 kg of the body weight, and the exsanguinations were conducted at given times to measure the glucose concentration in blood using a […] Π (a product of Horive Ltd). Female 5 weeks old, metabolic syndrome model rats ([…] product of Sankyo laboratories Co., Ltd.) were purchased and reared for about a week in a laboratory animals rearing room of a constant temperature (24 ± 1 °C), a constant humidity (54 ± 5 %) and a 12 hour light-dark cycle, and thereafter used for the experiment. Water and feed were provided ad lib to them. In the experiment, each group consists of 6 rats with proviso that 5 Wistar rats as normal group were used. Sample was orally administered to all rats in the afternoon. • 1) Control group: olive oil was administered in an amount of 1 ml per 1 kg of body weight of rat. • 2) Astaxanthin 5 mg/Kg administration group: astaxanthin was administered in an amount of 5 mg in admixture with I ml of olive oil per 1 kg of body weight of rat. • 3) Astaxanthin 50 mg/Kg administration group: astaxanthin was administered in an amount of 50 mg in admixture with I ml of olive oil per 1 kg of body weight of rat. • 4) Normal group: olive oil was administered in an amount of 1 ml per 1 kg of body weight of Wister rat

[5] = system: metabolic syndrome model rats (SHR/Ndmer); test: Measurement of fat in blood (triglyceride G test); format: in vivo, rat; conditions: for blood fat: Ax 50 mg/kg oral, SHR/Ndmer rats
Description: The supernatant formed after centrifugation was subjected to the triglyceride G test using an enzyme (a product of Wako Pure Chemical Industries, Ltd.) to measure the fat concentration in blood.
as §1, §2

[6] = system: metabolic syndrome model rats (SHR/Ndmer); test: Measurement of adiponectin in blood (ELISA); format: in vivo, rat; conditions: for blood adiponectin concentration: Ax 50 mg/kg oral, SHR/Ndmer rats
Description: I ml of blood was exsanguinated from a rat. After centrifugation, the obtained supernatant was subjected to ELISA kit for measuring adiponectin (Otsuka Pharmaceutical Inc.) to measure the adiponectin concentration in blood
as §1, §2

[7] = background statement; cited from earlier work
[8] = Ax 5 mg/kg oral, at 6 weeks old
[9] = Ax 5 mg/kg oral, at 9 weeks old
[10] = Ax 5 mg/kg oral, at 17 weeks old
[11] = Ax 50 mg/kg oral, at 6 weeks old
[12] = Ax 50 mg/kg oral, at 9 weeks old
[13] = Ax 50 mg/kg oral, at 17 weeks old
[14] = Ax 5 mg/kg oral, at 12 weeks old
[15] = Ax 5 mg/kg oral, at 24 weeks old
[16] = Ax 50 mg/kg oral, at 12 weeks old
[17] = Ax 50 mg/kg oral, at 24 weeks old
[18] = Ax 5 mg/kg oral, at 7 weeks old
[19] = Ax 50 mg/kg oral, at 7 weeks old

CC1=C(/C=C/C(C)=C/C=C/C(C)=C/C=C/C=C(C)/C=C/C=C(C)/C=C/C2=C(C)C(=O)C(O)CC2(C)C)C(C)(C)CC(O)C1=O (stereo not drawn) [Ax, 3,3'-dihydroxy-β, β-carotene-4, 4'-dione]
body weight [1, 8]: 156 g
body weight [1, 9]: 259 g
body weight ([1]; Ax 5 mg/kg oral, at 13 weeks old): 378 g
body weight [1, 10]: 468 g
body weight [1, 11]: 148 g
body weight [1, 12]: 250 g
body weight ([1]; Ax 50 mg/kg oral, at 13 weeks old): 368 g
body weight [1, 13]: 459 g
change in the body weight (in words) ([1]; administration of astaxanthin, summary of Table 1): no change in the body weight
diastolic blood pressure [2, 8]: 121 mmHG
systolic blood pressure [2, 8]: 144 mmHG
diastolic blood pressure [2, 9]: 130 mmHG
systolic blood pressure [2, 9]: 161 mmHG
diastolic blood pressure [2, 14]: 129 mmHG
systolic blood pressure [2, 14]: 159 mmHG
diastolic blood pressure [2, 15]: 155 mmHG
systolic blood pressure [2, 15]: 185 mmHG
diastolic blood pressure [2, 11]: 121 mmHG
systolic blood pressure [2, 11]: 147 mmHG
diastolic blood pressure [2, 12]: 128 mmHG
systolic blood pressure [2, 12]: 160 mmHG
diastolic blood pressure [2, 16]: 119 mmHG
systolic blood pressure [2, 16]: 154 mmHG
diastolic blood pressure [2, 17]: 156 mmHG
systolic blood pressure [2, 17]: 189 mmHG
rise in blood pressure (in words) ([2]; administration of astaxanthin, summary of Tables 2 and 3): suppresses the rise in blood pressure
fasting blood glucose value [3, 18]: 132.0 mg/dL
fasting blood glucose value [3, 9]: 98.0 mg/dL
fasting blood glucose value [3, 14]: 88.3 mg/dL
fasting blood glucose value [3, 10]: 108.8 mg/dL
fasting blood glucose value [3, 19]: 135.0 mg/dL
fasting blood glucose value [3, 12]: 109.0 mg/dL
fasting blood glucose value [3, 16]: 89.3 mg/dL
fasting blood glucose value [3, 13]: 111.8 mg/dL
blood glucose value after insulin infection [4, 18]: 98.0 mg/dL
blood glucose value after insulin infection [4, 9]: 85.6 mg/dL
blood glucose value after insulin infection [4, 14]: 81.5 mg/dL
blood glucose value after insulin infection [4, 10]: 82.2 mg/dL
blood glucose value after insulin infection [4, 19]: 106.3 mg/dL
blood glucose value after insulin infection [4, 12]: 81.0 mg/dL
blood glucose value after insulin infection [4, 16]: 73.8 mg/dL
blood glucose value after insulin infection [4, 13]: 72.0 mg/dL
insulin resistance (in words) ([4]; administration of astaxanthin, summary of Table 5): significantly improved
blood fat ([5]; at 7 weeks old): 139.5 ± 15.9 mg/dL
blood fat ([5]; at 12 weeks old): 304.8 ± 9.9 mg/dL
increase in the blood fat with the passage of time (in words) ([5]; SHR/Ndmer, versus control group, summary of Table 6): suppresses the increase in the blood fat
blood adiponectin concentration ([6]; at 7 weeks old): 7.08 ± 0.43 µg/mL
blood adiponectin concentration ([6]; at 12 weeks old): 8.21 ± 0.14 µg/mL
adiponectin concentration in blood (in words) ([6]; administration of astaxanthin, summary of Table 7): increased in comparison with the control group
antioxidative action relative to vitamin E (α-tocopherol) [7]: about 1000 times
antioxidative action relative to β-carotene [7]: about 40 times
